Test results from patent US10344034B2, “Pyrazolopyrimidone or Pyrrolotriazone derivatives, method of preparing same, and pharmaceutical applications thereof” (Shanghai Hengrui Pharmaceutical Co., Ltd., priority 2013, dated 2019).

Key:
human GnRHr = human GnRHr (Homo sapiens (Human), UniProt P30968); assay: Human GnRHr (GnRH receptor) activity assay, Fluo-4 calcium signal in Human GnRHr/CHO stably transfected cell lines; format: cell-based; conditions: Human GnRHr/CHO cells, GnRH polypeptide stimulant
Chain of human GnRHr (P30968 whole entry): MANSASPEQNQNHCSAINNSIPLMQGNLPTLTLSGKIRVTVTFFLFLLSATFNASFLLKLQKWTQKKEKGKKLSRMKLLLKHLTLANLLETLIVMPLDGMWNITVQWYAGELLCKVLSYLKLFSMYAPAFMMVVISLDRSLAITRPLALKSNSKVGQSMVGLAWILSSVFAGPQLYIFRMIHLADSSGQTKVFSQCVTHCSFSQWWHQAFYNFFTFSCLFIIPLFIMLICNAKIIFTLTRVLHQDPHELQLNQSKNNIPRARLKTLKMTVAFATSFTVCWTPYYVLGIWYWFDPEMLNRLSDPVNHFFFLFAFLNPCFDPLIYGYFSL
Protocol: Test Example 1. Human GnRHr (GnRH Receptor) Activity Assay of the Present Compounds.
In vitro GnRHr protein activity was tested by the following methods.
This assay was used to determine the inhibition effect of the present compound on the activity of human GnRHr protein expressed by Human GnRHr/CHO stably transfected cell lines.
A mammalian expression vector containing the human GnRHr gene was transferred into CHO cells by adding Lipofectamine® LTX reagent containing Plus™. Antibiotics were added the next day for screening to pick out the monoclonal cell lines.
(§1) The Human GnRHr/CHO stably transfected cell lines were inoculated in 96-well plates with an inoculation density of 25,000 cells/well. The culture medium was removed the next day, and loading buffer containing Fluo-4 dye was added to the plate (100 μL/well) and incubated for 30 minutes at 37° C. The plate was moved to room temperature and equilibrated for 10 minutes. Each compound was diluted with DMSO to seven concentration gradients of 100 μM, 10 μM, 1 μM, 0.1 μM, 0.01 μM, 0.001 μM, 0.0001 μM. Then, 1 μl of each gradient was added to each well and incubated for 10 minutes at room temperature. After automated addition of 50 μL of GnRH polypeptide stimulant solution, the value was immediately detected at 494/516 nM by a microplate reader (flexstation 3). IC50 values of the compounds were calculated by software from different fluorescence signals at various corresponding concentrations.
The inhibitory activity of the present compounds on human GnRHr was determined by the above assay, and IC50 values are shown in Table 1.

[1] = Rat pharmacokinetics assay; format: in vivo, Sprague-Dawley (SD) rats; conditions: both sexes, Sprague-Dawley, plasma, oral 10 mg/kg; for Vd/F: read-out: Apparent volume of distribution Vz/F; for AUC: read-out: Area under curve AUC; for CL/F: read-out: Clearance rate CL/F; for half-life: read-out: Half-life T1/2 (converted); for Cmax: read-out: Plasma concentration Cmax; for MRT: read-out: Residence time MRT
Protocol: Test Example 4. Rat pharmacokinetics assay of the compounds of Example 2, Example 3, Example 5, Example 9, Example 10, Example 11, and Example 13 of the present invention.
Sprague-Dawley (SD) rats were used as test animals. The plasma concentrations at various times were determined by LC/MS/MS after intragastric administration of compounds of Example 2, Example 3, Example 5, Example 9, Example 10, Example 11, and Example 13, and intravenous administration of the compound of Example 11 to the rats. The pharmacokinetic behavior of the present compounds in rats was studied, and the pharmacokinetic features were evaluated.
Thirty-two (32) healthy adult SD rats (half female and half male) were evenly designated into 8 groups (4 for each group). The animals were purchased from Shanghai Super B&K Laboratory Animal Corp. Ltd (laboratory animal production Certificate No. SCXK (HU)2008-0016).
An appropriate amount of sample was weighed, and added with 0.5% CMC-Na to form a 1 mg/ml suspension upon ultrasonic treatment.
Appropriate amounts of drugs were weighed, and dissolved with 0.5 ml DMSO and 0.5 ml of Tween 80. Saline solution was added to the final volume.
Thirty-two (32) SD rats (half female and half male) were evenly designated into 8 groups (4 for each group), and administered by oral gavage or intravenous injection (i.v.) (oral gavage at a dosage of 10 mg/kg or 30 mg/kg, and i.v. at a dosage of 5.0 mg/kg), respectively, at a volume of 10 ml/kg after fasting overnight.
0.1 ml of blood was sampled before, and 0.5, 1, 2, 4, 6, 8, 11, and 24 hours after administration, collected in a heparinized test tube, and centrifuged at 3500 rpm for 10 minutes to separate the plasma, which was stored at −20° C. The animals were allowed access to feed 2 hours after administration.
The content of the test compound in the plasma of rats after administration of the compound by oral gavage was determined by LC/MS/MS.

rabbit GnRHr = rabbit GnRHr (Oryctolagus cuniculus, UniProt Q5U7L3); assay: Rabbit GnRHr inhibitory activity assay, rabbit GnRHr/CHO stably transfected cell lines; format: cell-based; conditions: rabbit GnRHr/CHO cells, GnRH polypeptide stimulant, Fluo-4
Chain of rabbit GnRHr (Q5U7L3 1-328): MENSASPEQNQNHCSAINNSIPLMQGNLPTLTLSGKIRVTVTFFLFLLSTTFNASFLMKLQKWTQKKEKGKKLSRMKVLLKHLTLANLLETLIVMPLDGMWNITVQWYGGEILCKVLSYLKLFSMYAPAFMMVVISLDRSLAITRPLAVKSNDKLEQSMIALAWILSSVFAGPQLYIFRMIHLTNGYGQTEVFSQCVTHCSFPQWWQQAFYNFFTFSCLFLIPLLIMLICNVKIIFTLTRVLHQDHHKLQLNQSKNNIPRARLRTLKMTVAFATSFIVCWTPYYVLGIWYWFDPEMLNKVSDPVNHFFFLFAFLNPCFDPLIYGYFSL
Protocol: Test Example 3. Rabbit GnRHr Inhibitory Activity Assay of the Present Compounds
This assay was used to determine the inhibition effect of the present compounds on the activity of rabbit GnRHr protein expressed by rabbit GnRHr/CHO stably transfected cell lines.
A mammalian expression vector containing the rabbit GnRHr gene was transferred into CHO cells by adding Lipofectamine® LTX reagent containing Plus™. Antibiotics were added the next day for screening to pick out the monoclonal cell lines.
as §1, with “rabbit” for “Human”, “494/516n M” for “494/516 nM”
The inhibitory activity of the present compounds on rabbit GnRHr was determined by the above assay, and IC50 values are shown in Table 1.

| SMILES | IC50 (human GnRHr) [nM] | Vd/F [1] [L/kg] | AUC [1] [ng·h/mL] | CL/F [1] [mL/min/kg] | half-life [1] [h] | Cmax [1] [ng/mL] | MRT [1] [h] | IC50 (rabbit GnRHr) [nM] |
| --- | --- | --- | --- | --- | --- | --- | --- | --- |
| CONC(=O)Nc1ccc(-n2nc3c(c2CN(C)C)c(=O)n(-c2cccc(OC)c2F)c(=O)n3Cc2c(F)cccc2F)cc1 [Example 2, 1-(4-(7-(2,6-difluorobenzyl)-3-((dimethylamino)methyl)-5-(2-fluoro-3-methoxyphenyl)-4,6-dioxo-4,5,6,7-tetrahydro-2H-pyrazolo[3,4-d]pyrimidin-2-yl)phenyl)-3-methoxyurea] | 1.46 | 14.4 ± 10.5 | 1550 ± 650 | 121 ± 44 | 1.24 ± 0.54 | 746 ± 493 | 2.02 ± 0.67 | – |
| CCNC(=O)Nc1ccc(-n2nc3c(c2CN(C)C)c(=O)n(-c2cccc(OC)c2F)c(=O)n3Cc2c(F)cccc2F)cc1 [Example 3, 1-(4-(7-(2,6-difluorobenzyl)-3-((dimethylamino)methyl)-5-(2-fluoro-3-methoxyphenyl)-4,6-dioxo-4,5,6,7-tetrahydro-2H-pyrazolo[3,4-d]pyrimidin-2-yl)phenyl)-3-ethylurea] | 0.9 | 96.2 ± 42.2 | 1070 ± 472 | 181 ± 79 | 6.17 ± 0.79 | 237 ± 158 | 6.42 ± 1.39 | – |
| CNC(=O)Nc1ccc(-n2nc3c(c2CN(C)C)c(=O)n(-c2cccc(OC)c2F)c(=O)n3Cc2c(F)cccc2F)cc1 [Example 5, 1-(4-(7-(2,6-difluorobenzyl)-3-((dimethylamino)methyl)-5-(2-fluoro-3-methoxyphenyl)-4,6-dioxo-4,5,6,7-tetrahydro-2H-pyrazolo[3,4-d]pyrimidin-2-yl)phenyl)-3-methylurea] | 0.66 | 46.8 ± 39.2 | 1290 ± 1030 | 247 ± 198 | 2.32 ± 0.65 | 690 ± 660 | 2.47 ± 0.75 | – |
| CCNC(=O)Nc1ccc(-n2nc3c(c2CN(C)C)c(=O)n(-c2cccc(OC)c2F)c(=O)n3Cc2c(F)cccc2C(F)(F)F)cc1 [Example 6, 1-(4-(3-((dimethylamino)methyl)-5-(2-fluoro-3-methoxyphenyl)-7-(2-fluoro-6-(trifluoromethyl)benzyl)-4,6-dioxo-4,5,6,7-tetrahydro-2H-pyrazolo[3,4-d]pyrimidin-2-yl)phenyl)-3-ethylurea] | 0.96 | – | – | – | – | – | – | – |
| CONC(=O)Nc1ccc(-n2nc3c(c2CN(C)C)c(=O)n(-c2cccc(OC)c2F)c(=O)n3Cc2c(F)cccc2C(F)(F)F)cc1 [Example 7, 1-(4-(3-((dimethylamino)methyl)-5-(2-fluoro-3-methoxyphenyl)-7-(2-fluoro-6-(trifluoromethyl)benzyl)-4,6-dioxo-4,5,6,7-tetrahydro-2H-pyrazolo[3,4-d]pyrimidin-2-yl)phenyl)-3-methoxyurea] | 0.49 | – | – | – | – | – | – | – |
| CNC(=O)Nc1ccc(-n2nc3c(c2CN(C)C)c(=O)n(-c2cccc(OC)c2F)c(=O)n3Cc2c(F)cccc2C(F)(F)F)cc1 [Example 8, 1-(4-(3-((dimethylamino)methyl)-5-(2-fluoro-3-methoxyphenyl)-7-(2-fluoro-6-(trifluoromethyl)benzyl)-4,6-dioxo-4,5,6,7-tetrahydro-2H-pyrazolo[3,4-d]pyrimidin-2-yl)phenyl)-3-methylurea] | 0.6 | – | – | – | – | – | – | 0.27 |
| CNC(=O)Nc1ccc(-n2nc3c(c2CN(C)C)c(=O)n(-c2ccc(OC)nn2)c(=O)n3Cc2c(F)cccc2F)cc1 [Example 9, 1-(4-(7-(2,6-difluorobenzyl)-3-((dimethylamino)methyl)-5-(6-methoxypyridazin-3-yl)-4,6-dioxo-4,5,6,7-tetrahydro-2H-pyrazolo[3,4-d]pyrimidin-2-yl)phenyl)-3-methylurea] | 0.42 | 72 ± 25 | 628 ± 369 | 332 ± 159 | 2.91 ± 1.64 | 146 ± 59 | 4.67 ± 2.22 | 0.24 |
| CCNC(=O)Nc1ccc(-n2nc3c(c2CN(C)C)c(=O)n(-c2ccc(OC)nn2)c(=O)n3Cc2c(F)cccc2F)cc1 [Example 10, 1-(4-(7-(2,6-difluorobenzyl)-3-((dimethylamino)methyl)-5-(6-methoxypyridazin-3-yl)-4,6-dioxo-4,5,6,7-tetrahydro-2H-pyrazolo[3,4-d]pyrimidin-2-yl)phenyl)-3-ethylurea] | 0.66 | 30.3 ± 14.4 | 1240 ± 593 | 168 ± 95 | 2.29 ± 0.84 | 598 ± 431 | 2.96 ± 0.17 | – |
| CNC(=O)Nc1ccc(-n2nc3c(c2CN(C)C)c(=O)n(-c2ccc(OC)nn2)c(=O)n3Cc2c(F)cccc2C(F)(F)F)cc1 [Example 12, 1-(4-(3-((dimethylamino)methyl)-7-(2-fluoro-6-(trifluoromethyl)benzyl)-5-(6-methoxypyridazin-3-yl)-4,6-dioxo-4,5,6,7-tetrahydro-2H-pyrazolo[3,4-d]pyrimidin-2-yl)phenyl)-3-methylurea] | 2.24 | – | – | – | – | – | – | – |
| CCNC(=O)Nc1ccc(-c2cn3c(c2CN(C)C)c(=O)n(-c2cccc(OC)c2F)c(=O)n3Cc2c(F)cccc2F)cc1 [Example 13, 1-(4-(1-(2,6-difluorobenzyl)-5-((dimethylamino)methyl)-3-(2-fluoro-3-methoxyphenyl)-2,4-dioxo-1,2,3,4-tetrahydropyrrolo[2,1-f][1,2,4]triazin-6-yl)phenyl)-3-ethylurea] | 0.92 | 231 ± 234 | 389 ± 298 | 915 ± 1050 | 3.31 ± 0.57 | 103 ± 64 | 4.48 ± 0.7 | – |
| CNC(=O)Nc1ccc(-c2cn3c(c2CN(C)C)c(=O)n(-c2cccc(OC)c2F)c(=O)n3Cc2c(F)cccc2F)cc1 [Example 14, 1-(4-(1-(2,6-difluorobenzyl)-5-((dimethylamino)methyl)-3-(2-fluoro-3-methoxyphenyl)-2,4-dioxo-1,2,3,4-tetrahydropyrrolo[2,1-f][1,2,4]triazin-6-yl)phenyl)-3-methylurea] | 0.11 | – | – | – | – | – | – | – |
| CONC(=O)Nc1ccc(-c2cn3c(c2CN(C)C)c(=O)n(-c2cccc(OC)c2F)c(=O)n3Cc2c(F)cccc2F)cc1 [Example 15, 1-(4-(1-(2,6-difluorobenzyl)-5-((dimethylamino)methyl)-3-(2-fluoro-3-methoxyphenyl)-2,4-dioxo-1,2,3,4-tetrahydropyrrolo[2,1-f][1,2,4]triazin-6-yl)phenyl)-3-methoxyurea] | 0.43 | – | – | – | – | – | – | – |
| CNC(=O)Nc1ccc(-c2cn3c(c2CN(C)C)c(=O)n(-c2ccc(OC)nn2)c(=O)n3Cc2c(F)cccc2F)cc1 [Example 16, 1-(4-(1-(2,6-difluorobenzyl)-5-((dimethylamino)methyl)-3-(6-methoxypyridazin-3-yl)-2,4-dioxo-1,2,3,4-tetrahydropyrrolo[2,1-f][1,2,4]triazin-6-yl)phenyl)-3-methylurea] | 2.32 | – | – | – | – | – | – | – |
